For data set [1] the following is noted: 101.33 kPa, Liquid; for speed of sound: Sing-around technique in a fixed-path interferometer; for mass density: Vibrating tube method.
The nature of data set [2]: molar heat capacity at constant pressure. To be noted: 101.33 kPa, Liquid, Small sample (50 mg) DSC.

Numbers after ± are expanded uncertainties.

This note sets out measurements from the NIST ThermoML archive (doi:10.1021/je301353z).

For orientation: speed of sound means the propagation velocity of pressure waves in the medium. One may read the mass density as mass per unit of volume. `CCn1cc[n+](C)c1.F[B-](F)(F)F` [1-ethyl-3-methylimidazolium tetrafluoroborate]: the speed of sound in data set [1] (293.15 K) stood at 1631 ± 2.1 m/s; in data set [1] (298.15 K), 1619.4 ± 2.1 m/s; in data set [1] (303.15 K) it was 1607.6 ± 2.1 m/s; in data set [1] (308.15 K), 1596.3 ± 2.1 m/s. Also, the mass density in data set [1] (293.15 K) amounted to 1283.89 ± 1.7 kg/m3; in data set [1] (298.15 K), 1279.91 ± 1.7 kg/m3; in data set [1] (303.15 K), 1276.26 ± 1.7 kg/m3; in data set [1] (308.15 K) it was 1272.07 ± 1.7 kg/m3. Further, the “molar heat capacity at constant pressure” value in data set [2] (293.15 K) worked out at 303.41 ± 4.7 J/K/mol; in data set [2] (298.15 K), 305.12 ± 4.7 J/K/mol; in data set [2] (303.15 K), 306.81 ± 4.8 J/K/mol; in data set [2] (308.15 K), 308.58 ± 4.8 J/K/mol.

For the molecule `O=C1CCCN1` [2-pyrrolidinone], the speed of sound is recorded as 1650.1 ± 1.3 m/s in data set [1] (293.15 K), 1633.9 ± 1.3 m/s in data set [1] (298.15 K), 1617.1 ± 1.3 m/s in data set [1] (303.15 K) and 1601.8 ± 1.3 m/s in data set [1] (308.15 K). Moreover, the mass density in data set [1] (293.15 K) worked out at 1111.28 ± 1 kg/m3; in data set [1] (298.15 K), 1107.15 ± 1 kg/m3; in data set [1] (303.15 K) it was 1103.02 ± 1 kg/m3; in data set [1] (308.15 K), 1098.9 ± 1 kg/m3. The “molar heat capacity at constant pressure” value in data set [2] (293.15 K) is 168.36 ± 2.6 J/K/mol; in data set [2] (298.15 K), 169.55 ± 2.6 J/K/mol; in data set [2] (303.15 K), 171.18 ± 2.6 J/K/mol; in data set [2] (308.15 K) it was 172.37 ± 2.7 J/K/mol.

Turning to `CN1CCCC1=O` [N-methylpyrrolidone], the speed of sound was found to be 1565.5 ± 1.3 m/s in data set [1] (293.15 K), 1546 ± 1.2 m/s in data set [1] (298.15 K), 1527.2 ± 1.2 m/s in data set [1] (303.15 K) and 1507.4 ± 1.2 m/s in data set [1] (308.15 K). The mass density in data set [1] (293.15 K) worked out at 1033.23 ± 1 kg/m3; in data set [1] (298.15 K) it was 1028.23 ± 1 kg/m3; in data set [1] (303.15 K) it was 1023.46 ± 1 kg/m3; in data set [1] (308.15 K), 1018.66 ± 1 kg/m3. The “molar heat capacity at constant pressure” value amounted to 165.44 ± 2.6 J/K/mol in data set [2] (293.15 K), 166.22 ± 2.6 J/K/mol in data set [2] (298.15 K), 166.92 ± 2.6 J/K/mol in data set [2] (303.15 K) and 167.21 ± 2.6 J/K/mol in data set [2] (308.15 K).

On to `c1ccncc1` [pyridine], for which the speed of sound in data set [1] (293.15 K) is 1442 ± 1.2 m/s; in data set [1] (298.15 K) it was 1417.8 ± 1.2 m/s; in data set [1] (303.15 K) it was 1398 ± 1.2 m/s; in data set [1] (308.15 K), 1377.1 ± 1.2 m/s. Also, the mass density was determined as 983.195 ± 1 kg/m3 in data set [1] (293.15 K), 978.252 ± 1 kg/m3 in data set [1] (298.15 K), 973.228 ± 1 kg/m3 in data set [1] (303.15 K) and 968.171 ± 1 kg/m3 in data set [1] (308.15 K). Also, the “molar heat capacity at constant pressure” value in data set [2] (293.15 K) amounted to 130.49 ± 2 J/K/mol; in data set [2] (298.15 K) it was 131.74 ± 2 J/K/mol; in data set [2] (303.15 K), 132.71 ± 2.1 J/K/mol; in data set [2] (308.15 K) it was 133.82 ± 2.1 J/K/mol.
